± gives the expanded uncertainty stated by the source.
Conditions: Crystal; Melting Point Apparatus

| Structure (SMILES) | Normal melting temperature |
| --- | --- |
| O=c1cc(-c2ccc(O)c(O)c2)oc2cc(O)cc(O)c12 [5,7,3',4'-tetrahydroxyflavone] | 337.38 ± 0.2 °C |
| C[C@@H]1O[C@@H](OC[C@H]2O[C@@H](Oc3c(-c4ccc(O)c(O)c4)oc4cc(O)cc(O)c4c3=O)[C@H](O)[C@@H](O)[C@@H]2O)[C@H](O)[C@H](O)[C@H]1O [rutin] | 177.20 ± 0.2 °C |

— the NIST ThermoML archive (doi:10.1016/j.fluid.2013.01.026)
